Assay results taken from patent US8642621B2, “(4-phenyl-piperidin-1-yl)-[5-(1H-pyrazol-4-yl)-thiophen-3-yl]-methanone compounds and their use” (The University Of Edinburgh, priority 2009, dated 2014).
Read-outs that look alike come from different tables or passages of the source.

How the values were obtained:
human 11β-HSD1 enzyme = target: T1, human 11β-HSD1 enzyme (Homo sapiens, UniProt P28845); assay: Cellular in vitro 11β-HSD1 enzyme inhibition assay (SPA, HEK293/11β-HSD1 cells); assay type: cell-based
T1 construct: stably transfected with a construct containing the full-length gene coding for the human 11β-HSD1 enzyme; expressed in transfected cells; HEK293/11β-HSD1 cells)
Procedure: Cellular In Vitro 11β-HSD1 Enzyme Inhibition Assay
Compounds were assessed by a Scintillation Proximity Assay (SPA) performed according to the following protocol:
HEK293 cells were stably transfected with a construct containing the full-length gene coding for the human 11β-HSD1 enzyme to create HEK293/11β-HSD1 cells. Cells were routinely cultured in DMEM containing 10% calf foetal serum, 1% glutamine, and 1% penicillin and streptomycin. Prior to assay, cells were plated at 2×10^4 cells/well in 96-well poly-D-Lys coated flat-bottomed microplates and incubated in 5% CO2, 95% O2 at 37° C. for 24 hours. The media in each well was removed immediately before assay.
Compounds to be tested were dissolved in DMSO at 10 mM and serially diluted into water containing 10% DMSO. Diluted compounds at a volume of 10 μL were added to wells of a 96-well V-bottomed microplate. A solution of DMEM, 1% glutamine, 1% penicillin and streptomycin, and 22 nM tritiated cortisone was prepared and 90 μL added to each well of the assay plate. This solution (100 μL/well) was transferred to the plate containing the cells. The plate was then incubated in 5% CO2, 95% O2 at 37° C. for 2 hours.
Following this incubation, 50 μL of the assay solution was transferred to each well of a 96-well scintillation microplate. A mixture consisting of anti-mouse YSi SPA beads, pre-mixed with anti-cortisol antibody in assay buffer (50 mM Tris.HCl, pH 7.0; 300 mM NaCl; 1 mM EDTA, 5% glycerol) was prepared and 50 μL added to each well of the scintillation microplate. An adhesive strip was applied to the microplate and the plate gently shaken for at least 2 hours at room temperature, and then spun briefly on a low speed centrifuge. The plate was read on a scintillation counter suitable for 96-well microplates. For the calculation of percentage inhibition, a series of wells were added to the plate that represented the assay maximum and the assay minimum: one set that contained substrate without cells (minimum) and another set that contained substrate and cells without any compound (maximum).
The calculation of median inhibitory concentration (IC50) values for the compounds was performed using GraphPad Prism® software. Dose-response curves for each compound were plotted as fractional inhibition and data fitted to the four parameter logistic equation.

[1] = In vitro human liver microsomal stability assay; assay type: in vitro ADME; conditions: human liver microsomes
Procedure: In Vitro Human Liver Microsomal Stability Assay
To predict in vivo metabolism of compounds, the stability of compounds incubated with human liver microsomes in vitro was determined. Human liver microsome preparations were stored at −80° C. and thawed on ice prior to use. The thawed microsomes were diluted to a concentration of 2 mg/mL in 50 mM sodium phosphate, pH 7.4. Reference and test compounds were prepared as 10 mM stocks in 100% DMSO and diluted to 1 mM in acetonitrile before use. Each compound was tested in triplicate as follows:
4 μL of test or reference compound was added to a well of a 24-well microplate and 0.5 mL of 4 mM NADPH added. The plate was then transferred to a shaker for 10 minutes at room temperature. 30 μL of the compound/NADPH solution was transferred to the well of a 96-well microplate and incubated at 37° C. for 5 minutes. 30 μL of human liver microsomes (pre-incubated at 37° C. for 5 minutes) was added to the well containing the compound/NADPH solution and the plate incubated for the selected period of time (typically 0 or 30 minutes). The reaction was stopped by adding 60 μL of ice cold […] trichloroacetic acid. The plate was centrifuged at 1000 rpm for 5 minutes at room temperature and the supernatant transferred to the well of a new 96-well v-bottomed microplate for mass spectrometric analysis.
Samples were analyzed by TSQ Quantum Discovery Tandem Mass Spectrometer and Surveyor Liquid Chromatogram (Thermo, Hemel-Hempstead, UK). 10 μL of each sample was injected in a mobile phase consisting of 60%:40% methanol:5 mM ammonium acetate at a flow rate of 0.5 mL/minute. The column used was a BDS hypersil, C18, 50×2.1 mm with a 5 μm particle size.
Each compound was tuned with a spray voltage of 3000 V and a capillary temperature of 300° C. and values for tube lens, CID and product ions were determined.
The peak area for each compound was measured in triplicate for the 0 and 30 minute samples and the average of each was reported. The percentage remaining after 30 minutes was calculated as the average peak area of the sample after 30 minutes divided by the average peak area at 0 minutes. The RSD was 10% or lower for each compound.

human 11β-HSD2 = target: T2, human 11β-HSD2 (Homo sapiens, UniProt P80365); assay: Cellular in vitro 11β-HSD2 enzyme inhibition assay (CHO cells); assay type: cell-based; conditions: CHO cells stably transfected with human 11β-HSD2; Table 1
T2 construct: CHO cells stably transfected with the full-length gene coding for human 11β-HSD2 were used; expressed in transfected cells
T2 sequence (P80365 1-405): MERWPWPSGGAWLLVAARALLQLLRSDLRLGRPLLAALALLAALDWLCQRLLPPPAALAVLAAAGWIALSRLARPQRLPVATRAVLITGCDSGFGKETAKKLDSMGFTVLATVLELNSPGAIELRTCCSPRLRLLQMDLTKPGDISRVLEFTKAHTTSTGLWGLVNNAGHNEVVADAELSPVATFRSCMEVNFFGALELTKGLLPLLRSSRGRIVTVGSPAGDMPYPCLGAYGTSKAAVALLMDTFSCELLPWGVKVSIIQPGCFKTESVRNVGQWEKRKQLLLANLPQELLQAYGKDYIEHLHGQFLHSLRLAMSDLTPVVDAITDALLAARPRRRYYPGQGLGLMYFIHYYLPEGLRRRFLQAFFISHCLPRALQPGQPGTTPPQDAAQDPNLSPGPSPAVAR
Procedure: Cellular In Vitro 11β-HSD2 Enzyme Inhibition Assay
Assays were carried out in 96-well microplates containing 1×10^5 cells/well. Controls and compounds were plated as above, so that the final DMSO concentration in each well was 1%. To initiate the assay, 90 μL of a solution of HAMS F-12 medium containing 1% glutamine, 1% penicillin and streptomycin, and 22 nM tritiated cortisol was added to each well of the assay plate. The plate was then incubated in 5% CO2, 95% O2 at 37° C. for 16 hours.
The assay solutions were transferred to glass tubes and 20 μL ethyl acetate added to each tube. Each tube was vortexed thoroughly and the upper layer containing the tritiated steroid transferred to a fresh glass tube. The solvent was evaporated by placing the tubes in a heating block at 65° C. under a stream of Nitrogen gas. 20 μL ethanol was added to each of the dried samples and vortexed briefly. Each sample was applied to a silica TLC plate and the plate dried. The plate was placed vertically in a glass tank containing 92% chloroform:8% ethanol and the solvent allowed to rise up the plate. The plate was dried, placed in an imaging cassette, and overlayed with a tritium imaging plate for 1-2 days. The amount of enzyme inhibition in each sample was determined by measuring the intensity of the substrate and product spots using a phosphoimager.
IC50 values for inhibitors were determined as described for 11β-HSD1.

[2] = read-out: IC50 for 11β-HSD1 (HEK293)
[3] = HEK293 cells stably transfected with human 11β-HSD1, Table 1, read-out: IC50 for 11β-HSD1 (HEK293)

T1 sequence (P28845 whole entry): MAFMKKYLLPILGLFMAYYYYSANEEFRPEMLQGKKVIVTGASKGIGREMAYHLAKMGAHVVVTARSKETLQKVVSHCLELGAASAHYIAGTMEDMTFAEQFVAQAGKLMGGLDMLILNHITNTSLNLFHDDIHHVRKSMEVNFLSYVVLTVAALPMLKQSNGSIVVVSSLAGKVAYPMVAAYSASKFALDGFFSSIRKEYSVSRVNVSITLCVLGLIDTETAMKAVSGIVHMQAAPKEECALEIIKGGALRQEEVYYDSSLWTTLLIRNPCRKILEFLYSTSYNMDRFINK

Structure (SMILES) | IC50 (human 11β-HSD1 enzyme; [2]) | other results
O=C(c1csc(-c2cn[nH]c2)c1)N1CCC(O)(c2cccc(C(F)(F)F)c2)CC1 [AA-03] | 500 to 1000 nM | –
O=C(c1csc(-c2cn[nH]c2)c1)N1CCC(O)(c2ccc(F)cc2)CC1 [AA-05] | ≤ 500 nM | % Parent Remaining at 30 min [1]: +++ (61-100% +++)
O=C(c1csc(-c2cn[nH]c2)c1)N1CCC(O)(c2ccc(Cl)cc2F)CC1 [AA-07] | ≤ 500 nM | % Parent Remaining at 30 min [1]: +++ (61-100% +++)
O=C(c1csc(-c2cn[nH]c2)c1)N1CCC(O)(c2ccc(F)cc2F)CC1 [AA-09] | ≤ 500 nM | % Parent Remaining at 30 min [1]: +++ (61-100% +++)
O=C(c1csc(-c2cn[nH]c2)c1)N1CCC(O)(c2ccccc2O)CC1 [AA-10] | 1000 to 10000 nM | –
O=C(c1csc(-c2cn[nH]c2)c1)N1CCC(O)(c2ccc(Cl)c(Cl)c2)CC1 [AA-11] | ≤ 500 nM | –
O=C(c1csc(-c2cn[nH]c2)c1)N1CCC(O)(c2ccc(F)cc2Cl)CC1 [AA-12] | ≤ 500 nM | IC50 (human 11β-HSD1 enzyme; [3]): 99 nM; IC50 (human 11β-HSD2): > 10000 nM
Cc1ccccc1C1(O)CCN(C(=O)c2csc(-c3cn[nH]c3)c2)CC1 [AA-13] | ≤ 500 nM | –
O=C(c1csc(-c2cn[nH]c2)c1)N1CCC(O)(c2ccccc2C(F)(F)F)CC1 [AA-14] | ≤ 500 nM | –
COC1(c2ccccc2)CCN(C(=O)c2csc(-c3cn[nH]c3)c2)CC1 [AA-15] | ≤ 500 nM | % Parent Remaining at 30 min [1]: ++ (31-60% ++); IC50 (human 11β-HSD1 enzyme; [3]): 110 nM; IC50 (human 11β-HSD2): > 10000 nM
CC1(c2ccccc2)CCN(C(=O)c2csc(-c3cn[nH]c3)c2)CC1 [AA-16] | ≤ 500 nM | % Parent Remaining at 30 min [1]: + (0-30% +)
O=C(c1csc(-c2cn[nH]c2)c1)N1CCC(CO)(c2ccccc2)CC1 [AA-19] | 1000 to 10000 nM | –
N#CC1(c2ccccc2)CCN(C(=O)c2csc(-c3cn[nH]c3)c2)CC1 [AA-20] | – | IC50 (human 11β-HSD1 enzyme): 1000 to 10000 nM
O=C(c1csc(-c2cn[nH]c2)c1)N1CCC(O)(c2cccc(Cl)c2Cl)CC1 [AA-21] | ≤ 500 nM | –
O=C(c1csc(-c2cn[nH]c2)c1)N1CCC(O)(c2c(F)cccc2Cl)CC1 [AA-23] | ≤ 500 nM | –
O=C(c1csc(-c2cn[nH]c2)c1)N1CCC(O)(c2ccc(Cl)cc2Cl)CC1 [AA-24] | ≤ 500 nM | –
COc1ccccc1C1(O)CC2CCC(C1)N2C(=O)c1csc(-c2cn[nH]c2)c1 (centres unmarked) [AA-25] | ≤ 500 nM | –
O=C(c1csc(-c2cn[nH]c2)c1)N1CCC(O)(c2cc(F)ccc2Cl)CC1 [AA-26] | ≤ 500 nM | –
O=C(c1csc(-c2cn[nH]c2)c1)N1CCC(O)(c2c(Cl)cccc2Cl)CC1 [AA-27] | ≤ 500 nM | –
O=C(c1csc(-c2cn[nH]c2)c1)N1CCC(O)(c2c(F)cccc2F)CC1 [AA-28] | ≤ 500 nM | –
Cc1n[nH]cc1-c1cc(C(=O)N2CCC(O)(c3ccccc3Cl)CC2)cs1 [AA-29] | ≤ 500 nM | –

Structure (SMILES) | IC50 (human 11β-HSD1 enzyme; [2]) | other results
O=C(c1csc(-c2cn[nH]c2)c1)N1CCC(O)(c2cc(Cl)ccc2Cl)CC1 [AA-31] | ≤ 500 nM | –
O=C(c1csc(-c2cn[nH]c2)c1)N1CC2CCC(C1)C2(O)c1ccccc1 (centres unmarked) [AA-32] | 500 to 1000 nM | –
CC1(c2ccccc2Cl)CCN(C(=O)c2csc(-c3cn[nH]c3)c2)CC1 [AA-34] | ≤ 500 nM | –
O=C(c1csc(-c2cn[nH]c2)c1)N1CCC(F)(c2ccc(Cl)cc2)CC1 [AA-35] | 500 to 1000 nM | –
O=C(c1csc(-c2cn[nH]c2)c1)N1CCC(F)(c2ccc(Cl)cc2Cl)CC1 [AA-38] | ≤ 500 nM | –
O=C(c1csc(-c2cn[nH]c2)c1)N1CC2CCC(C1)C2(F)c1ccccc1 (centres unmarked) [AA-39, (8-Fluoro-8-phenyl-3-aza-bicyclo[3.2.1]oct-3-yl)-[5-(1H-pyrazol-4-yl)-thiophen-3-yl]methanone] | 1000 to 10000 nM | –
Cc1cccc(F)c1C1(F)CCN(C(=O)c2csc(-c3cn[nH]c3)c2)CC1 [AA-40] | ≤ 500 nM | –
N#CC1(c2ccccc2Cl)CCN(C(=O)c2csc(-c3cn[nH]c3)c2)CC1 [AA-41] | – | IC50 (human 11β-HSD1 enzyme): 1000 to 10000 nM
O=C(c1csc(-c2cn[nH]c2)c1)N1CCC(c2ccc(F)cc2)CC1 [BB-01] | 500 to 1000 nM | % Parent Remaining at 30 min [1]: +++ (61-100% +++)
N#Cc1ccc(C2CCN(C(=O)c3csc(-c4cn[nH]c4)c3)CC2)cc1 [BB-02] | 1000 to 10000 nM | –
N#Cc1ccccc1C1CCN(C(=O)c2csc(-c3cn[nH]c3)c2)CC1 [BB-04] | ≤ 500 nM | % Parent Remaining at 30 min [1]: ++ (31-60% ++)
O=C(c1csc(-c2cn[nH]c2)c1)N1CCC(c2cccc(F)c2)CC1 [BB-05] | ≤ 500 nM | % Parent Remaining at 30 min [1]: ++ (31-60% ++)
O=C(c1csc(-c2cn[nH]c2)c1)N1CCC(c2ccc(Cl)cc2)CC1 [BB-06] | 500 to 1000 nM | % Parent Remaining at 30 min [1]: +++ (61-100% +++)
O=C(c1csc(-c2cn[nH]c2)c1)N1CCC(c2ccccc2F)CC1 [BB-07] | ≤ 500 nM | % Parent Remaining at 30 min [1]: + (0-30% +)
O=C(c1csc(-c2cn[nH]c2)c1)N1CCC(c2ccccc2OC(F)F)CC1 [BB-09] | ≤ 500 nM | –
O=C(c1csc(-c2cn[nH]c2)c1)N1CCC(c2ccc(F)cc2F)CC1 [BB-10] | 500 to 1000 nM | –
Cc1n[nH]cc1-c1cc(C(=O)N2CCC(c3ccccc3)CC2)cs1 [BB-11] | 500 to 1000 nM | IC50 (human 11β-HSD1 enzyme; [3]): 638 nM; IC50 (human 11β-HSD2): > 10000 nM
Cc1ccccc1C1CCN(C(=O)c2csc(-c3cn[nH]c3)c2)CC1 [BB-12] | ≤ 500 nM | –
O=C(c1csc(-c2cn[nH]c2)c1)N1CCC(c2ccccc2C(F)(F)F)CC1 [BB-13] | 500 to 1000 nM | % Parent Remaining at 30 min [1]: +++ (61-100% +++)
O=C(c1csc(-c2cn[nH]c2)c1)N1CCC(c2ccccc2CO)CC1 [BB-14] | ≤ 500 nM | –
O=C(c1csc(-c2cn[nH]c2)c1)N1CCC(c2ccccc2Cl)CC1 [BB-15] | ≤ 500 nM | –
